Like-named read-outs stand apart in the source and are kept apart here.
Tests used:
[1] = system: parent CHO cells (no transfected receptor); parameters: method as in PMID 34355529; details: non‐α‐mediated mechanism; cited from earlier work
[2] = target: T1, human α2A‐adrenoceptor (Homo sapiens, UniProt P08913); experiment: 3H‐rauwolscine whole cell binding in CHO‐α2A cells; parameters: expressed in transfected cells; host or cells: CHO-K1 with CRE-SPAP reporter
T1 sequence (P08913 1-465): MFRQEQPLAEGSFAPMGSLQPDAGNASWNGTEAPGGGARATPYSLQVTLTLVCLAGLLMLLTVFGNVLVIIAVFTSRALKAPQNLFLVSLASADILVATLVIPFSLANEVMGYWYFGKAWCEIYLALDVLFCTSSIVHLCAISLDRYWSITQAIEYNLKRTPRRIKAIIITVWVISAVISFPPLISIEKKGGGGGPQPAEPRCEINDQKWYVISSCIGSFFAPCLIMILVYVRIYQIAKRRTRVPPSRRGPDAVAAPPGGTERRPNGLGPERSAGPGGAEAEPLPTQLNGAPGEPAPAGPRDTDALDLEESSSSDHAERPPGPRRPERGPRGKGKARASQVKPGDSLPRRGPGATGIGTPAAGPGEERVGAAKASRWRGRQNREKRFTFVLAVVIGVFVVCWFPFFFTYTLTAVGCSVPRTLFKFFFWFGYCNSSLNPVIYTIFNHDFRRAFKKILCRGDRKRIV

[3] = target: T1, human α2A‐adrenoceptor; experiment: ERK1/2‐phosphorylation in CHO‐α2A cells; assay type: cell-based; parameters: expressed in transfected cells; host or cells: CHO-K1 with CRE-SPAP reporter
[4] = target: T1, human α2A‐adrenoceptor
[5] = target: T2, human α2C‐adrenoceptor (Homo sapiens, UniProt P18825); experiment: 3H‐rauwolscine whole cell binding in CHO‐α2C cells; parameters: expressed in transfected cells; host or cells: CHO-K1 with CRE-SPAP reporter
T2 sequence (P18825 1-462): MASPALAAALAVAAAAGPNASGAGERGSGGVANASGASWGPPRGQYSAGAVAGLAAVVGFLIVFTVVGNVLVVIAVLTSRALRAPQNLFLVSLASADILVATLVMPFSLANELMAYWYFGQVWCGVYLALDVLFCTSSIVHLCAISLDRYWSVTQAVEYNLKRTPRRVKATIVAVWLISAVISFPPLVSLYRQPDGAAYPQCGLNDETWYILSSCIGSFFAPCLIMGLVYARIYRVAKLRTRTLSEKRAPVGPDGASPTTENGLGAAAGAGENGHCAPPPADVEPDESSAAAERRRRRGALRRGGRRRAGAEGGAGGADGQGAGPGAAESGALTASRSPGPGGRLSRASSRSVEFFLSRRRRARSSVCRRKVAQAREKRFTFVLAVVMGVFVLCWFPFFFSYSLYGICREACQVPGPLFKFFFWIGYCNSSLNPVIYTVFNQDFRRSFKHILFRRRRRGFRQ

[6] = target: T2, human α2C‐adrenoceptor
[7] = target: T2, human α2C‐adrenoceptor; experiment: ERK1/2‐phosphorylation in CHO‐α2C cells; assay type: cell-based; parameters: expressed in transfected cells; host or cells: CHO-K1 with CRE-SPAP reporter
[8] = CHO‐α2A, 3H‐rauwolscine whole cell binding, given as negative log KD, read-out: Log KD (binding) (converted)
[9] = CHO‐α2A, maximum response compared to 10 μM PDBu
[10] = CHO‐α2A, read-out: Log EC50, ERK1/2‐phosphorylation (converted)
[11] = CHO‐α2A (cell line 1), % inhibition from the 3 μM forskolin control, inhibition only
[12] = CHO‐α2A (cell line 1), absence of forskolin
[13] = CHO‐α2C cells, % inhibition from the 3 μM forskolin control, mean ± SEM
[14] = CHO‐α2C cells, CRE‐SPAP production in the absence of forskolin
[15] = CHO‐α2C cells, maximum response compared to 10 μM PDBu, mean ± SEM
[16] = CHO‐α2C cells, given as negative log EC50, mean ± SEM, read-out: Log EC50, ERK1/2‐phosphorylation (converted)
[17] = 3H‐rauwolscine whole cell binding, living cells, negative log KD, mean ± SEM, read-out: Log KD, CHO‐α2A (converted)
[18] = fold, from KD values, 1 = no selectivity
[19] = CHO‐α2A, binding KD / Gi IC50 of CRE‐SPAP
[20] = Log IC50 (Gi), CRE‐SPAP (with forskolin), CHO‐α2A (cell line 1, 5830 fmol/mg protein), 3 μM forskolin
[21] = 3H‐rauwolscine whole cell binding, living cells, negative log KD, mean ± SEM, read-out: Log KD, CHO‐α2C (converted)
[22] = CHO‐α2C cells, 3H‐rauwolscine whole cell binding, given as negative log KD, mean only (SEM in Table 4), read-out: Log KD (converted)
[23] = CHO‐α2C cells, log KD from 3H‐rauwolscine binding versus CRE‐SPAP log IC50
[24] = Log IC50 (Gi), CRE‐SPAP (with forskolin), CHO‐α2C cells, inhibition of 3 μM forskolin‐stimulated CRE‐SPAP production, given as negative log IC50, mean ± SEM

Structure (SMILES) | ERK1/2‐phosphorylation agonist response in parent cells [1] | Kd [2, 8] | % 10 μM PDBu, ERK1/2‐phosphorylation [3, 9] | EC50 [3, 10] | IC50 [4] | % inhibition, CRE‐SPAP (with forskolin) [4, 11] | Log EC50 (Gs), CRE‐SPAP (without forskolin) [4, 12] | IC50 [6] | % inhibition, CRE‐SPAP (with forskolin) [6, 13] | Log EC50 (Gs), CRE‐SPAP (without forskolin) [6, 14] | % 10 μM PDBu, ERK1/2‐phosphorylation [7, 15] | EC50 [7, 16] | % 10 μM PDBu, ERK1/2‐phosphorylation [3] | Log EC50 (Gs), CRE‐SPAP (without forskolin) [4] | % inhibition, CRE‐SPAP (with forskolin) [6] | Log EC50 (Gs), CRE‐SPAP (without forskolin) [6] | Log efficacy ratio (KD/IC50) [6] | % 10 μM PDBu, ERK1/2‐phosphorylation [7] | Kd [2] | Kd [5] | further results
CN1C[C@H](C(=O)N[C@]2(C)O[C@@]3(O)[C@@H]4CCCN4C(=O)[C@H](Cc4ccccc4)N3C2=O)C[C@@H]2c3cccc4[nH]cc(c34)C[C@H]21 [Dihydroergotamine] | stimulate ERK1/2‐phosphorylation agonist responses |  |  |  |  |  |  |  |  |  |  |  |  |  |  |  |  |  |  |  | 
NCC(O)c1ccc(O)cc1 (stereo not drawn) [Octopamine] |  | 417000 nM | 124.1 ± 11.7% | 4790 nM | 132000 nM | 98.1 ± 5.7% | No response | 52500 nM | 86.3 ± 5.2% | No response | 153.8 ± 17.9% | 7760 nM |  |  |  |  |  |  |  |  | Kd ([2]; 3H‐rauwolscine whole cell binding, ^app: apparent KD, IC50 from extrapolated curve as not all specific binding was inhibited, read-out: Log KD (apparent), CHO‐α2A (converted)): 417000 nM; IC50 ([5]; 3H‐rauwolscine whole cell binding, no KD obtained, read-out: IC50 in binding, CHO‐α2C): ~1 mM
Cc1cc(C(C)(C)C)c(O)c(C)c1CC1=NCCN1 [Oxymetazoline] | stimulate ERK1/2‐phosphorylation agonist responses |  |  |  |  |  |  |  |  |  |  |  |  |  |  |  |  |  |  |  | 
Nc1cc(Cl)c(N=C2NCCN2)c(Cl)c1 [Para‐amino‐clonidine] |  |  |  |  |  |  |  |  |  |  |  |  | 141.9 ± 10.6% | −6.55 ± 0.10 | 82.3 ± 2.2% | No response | 1.78 | 132.6 ± 16.1% |  |  | Log KD (binding) [2]: −6.35; Log KD, CHO‐α2A [2]: −6.35 ± 0.03; Log EC50, ERK1/2‐phosphorylation [3]: −9.58 ± 0.12; % 3μM forskolin, CRE-SPAP (without forskolin) [4]: 12.9 ± 4.1%; % 3 μM forskolin, CRE‐SPAP (without forskolin) [4]: 37.6 ± 4.0%; % inhibition, CRE-SPAP (with forskolin) [4]: 67.5 ± 4.8%; Log EC50 (Gs), CRE-SPAP (with forskolin) [4]: -6.29 ± 0.32; Log EC50 (Gs), CRE‐SPAP (with forskolin) [4]: −6.81 ± 0.15; Log IC50 (Gi), CRE‐SPAP (with forskolin) [4]: −8.74 ± 0.12; Log KD [5]: −6.31; Log IC50 (Gi), CRE‐SPAP (with forskolin) [6]: −8.09 ± 0.07; Log EC50, ERK1/2‐phosphorylation [7]: −8.68 ± 0.13
C1COC(NC(C2CC2)C2CC2)=N1 [Rilmenidine] |  | 1550 nM | 144.0 ± 22.0% | 14.8 nM |  | 94.2 ± 3.6% | No response |  | 69.0 ± 7.9% | No response | 125.2 ± 15.6% | 49 nM |  |  |  |  |  |  |  |  | Kd [2, 17]: 1550 nM; Selectivity ratio α2A vs α2B (higher affinity for α2A) [2, 18]: 2.6; Selectivity ratio α2A vs α2C (higher affinity for α2A) [2, 18]: 1.0; Log efficacy ratio (KD/IC50) [4, 19]: 0.96; IC50 [4, 20]: 170 nM; Kd [5, 21]: 1550 nM; Kd [5, 22]: 1550 nM; Selectivity ratio α2B vs α2C (higher affinity for α2C) [5, 18]: 2.6; Log efficacy ratio (KD/IC50) [6, 23]: 0.52; IC50 [6, 24]: 468 nM
CNCC(O)c1ccc(O)cc1 (stereo not drawn) [Synephrine] |  |  |  |  | 9550 nM |  |  | 34700 nM |  |  |  |  | 114.5 ± 12.3% | No response | 88.1 ± 8.5% | No response |  | 112.8 ± 10.7% | 89100 nM | 120000 nM | EC50 [3]: 776 nM; % inhibition, CRE‐SPAP (with forskolin) [4]: 75.6 ± 5.6%; EC50 [7]: 3240 nM
c1ccc2c(c1)CCCC2C1=NCCN1 (stereo not drawn) [Tetrahydrozoline] |  | 324 nM | 123.0 ± 12.8% | 3.63 nM |  | 69.3 ± 7.2% | No response |  | 60.7 ± 3.2% | No response | 139.6 ± 19.8% | 126 nM |  |  |  |  |  |  |  |  | Kd [2, 17]: 324 nM; Selectivity ratio α2A vs α2B (higher affinity for α2A) [2, 18]: 17.4; Selectivity ratio α2A vs α2C (higher affinity for α2A) [2, 18]: 2.6; Log efficacy ratio (KD/IC50) [4, 19]: 1.18; IC50 [4, 20]: 21.4 nM; Kd [5, 21]: 851 nM; Kd [5, 22]: 851 nM; Selectivity ratio α2B vs α2C (higher affinity for α2C) [5, 18]: 6.6; Log efficacy ratio (KD/IC50) [6, 23]: 0.40; IC50 [6, 24]: 339 nM
Cc1cccc(C)c1N=C1NCCCS1 [Xylazine] |  |  |  |  | 288 nM |  |  | 178 nM |  |  |  |  | 128.3 ± 15.7% | No response | 81.8 ± 3.6% | No response | 1.53 | 168.2 ± 22.8% | 11500 nM | 6030 nM | Kd ([2]; Log KD, CHO‐α2A): 11500 nM; EC50 [3]: 30.2 nM; EC50 [4]: 8.51 µM; Log efficacy ratio (KD/IC50) [4]: 1.60; Selectivity ratio α2A vs α2C (higher affinity for α2C) [5]: 1.9; Selectivity ratio α2B vs α2C (higher affinity for α2C) [5]: 1.0; Kd ([5]; Log KD, CHO‐α2C): 6030 nM; EC50 [7]: 72.4 nM
Cc1cc(C(C)(C)C)cc(C)c1CC1=NCCN1 [Xylometazoline] | stimulate ERK1/2‐phosphorylation agonist responses |  |  |  | 7.41 nM |  |  | 63.1 nM |  |  |  |  |  | No response | 57.2 ± 3.9% | No response | 0.23 |  | 24 nM | 107 nM | Selectivity ratio α2A vs α2B (higher affinity for α2A) [2]: 151; Selectivity ratio α2A vs α2C (higher affinity for α2A) [2]: 4.5; Kd ([2]; Log KD, CHO‐α2A): 24 nM; % inhibition, CRE‐SPAP (with forskolin) [4]: 73.9 ± 4.6%; Log efficacy ratio (KD/IC50) [4]: 0.51; Selectivity ratio α2B vs α2C (higher affinity for α2C) [5]: 33.9; Kd ([5]; Log KD, CHO‐α2C): 107 nM
